Where a SMILES comes first, the peptide text is derived from it. [ ]: non-standard residue; d: D form. The star is where a group is joined. Dolaproine = CO[C@@H]([C@@H]1CCCN1)[C@@H](C)C(=O)O; Dil = CC[C@H](C)[C@H](NC)[C@@H](CC(=O)O)OC; X1 = C[C@@H](N*)[C@@H](O)c1ccccc1; NMeV = CN[C@H](C(=O)O)C(C)C
Assays:
Type in all cases: in vitro ADME
[1] = target: CYP2D6 (Homo sapiens, UniProt P10635); assay: In vitro metabolism of unconjugated MMAE; details: in vitro data
Description: (§1) Based on a validated physiological-based PK model simulation, strong CYP3A4 inhibitors may increase the exposure (e.g., area under the concentration-time curve) of unconjugated MMAE by […] while acMMAE PK is not affected. Concomitant medications that are strong CYP3A4 inhibitors are considered cautionary as they may potentially lead to adverse reactions, which require close monitoring. […] Concomitant medications that are P-gp inhibitors are considered cautionary as they may potentially lead to adverse reactions, which require close monitoring.

[2] = target: CYP3A4 (Homo sapiens, UniProt P08684); assay: In vitro metabolism of unconjugated MMAE; details: in vitro data
Description: as §1

[3] = target: P-glycoprotein (P-gp) (Homo sapiens, UniProt P08183); assay: P-glycoprotein substrate and inhibitor status of MMAE
Description: as §1

Chain of P-glycoprotein (P-gp) (P08183 whole entry): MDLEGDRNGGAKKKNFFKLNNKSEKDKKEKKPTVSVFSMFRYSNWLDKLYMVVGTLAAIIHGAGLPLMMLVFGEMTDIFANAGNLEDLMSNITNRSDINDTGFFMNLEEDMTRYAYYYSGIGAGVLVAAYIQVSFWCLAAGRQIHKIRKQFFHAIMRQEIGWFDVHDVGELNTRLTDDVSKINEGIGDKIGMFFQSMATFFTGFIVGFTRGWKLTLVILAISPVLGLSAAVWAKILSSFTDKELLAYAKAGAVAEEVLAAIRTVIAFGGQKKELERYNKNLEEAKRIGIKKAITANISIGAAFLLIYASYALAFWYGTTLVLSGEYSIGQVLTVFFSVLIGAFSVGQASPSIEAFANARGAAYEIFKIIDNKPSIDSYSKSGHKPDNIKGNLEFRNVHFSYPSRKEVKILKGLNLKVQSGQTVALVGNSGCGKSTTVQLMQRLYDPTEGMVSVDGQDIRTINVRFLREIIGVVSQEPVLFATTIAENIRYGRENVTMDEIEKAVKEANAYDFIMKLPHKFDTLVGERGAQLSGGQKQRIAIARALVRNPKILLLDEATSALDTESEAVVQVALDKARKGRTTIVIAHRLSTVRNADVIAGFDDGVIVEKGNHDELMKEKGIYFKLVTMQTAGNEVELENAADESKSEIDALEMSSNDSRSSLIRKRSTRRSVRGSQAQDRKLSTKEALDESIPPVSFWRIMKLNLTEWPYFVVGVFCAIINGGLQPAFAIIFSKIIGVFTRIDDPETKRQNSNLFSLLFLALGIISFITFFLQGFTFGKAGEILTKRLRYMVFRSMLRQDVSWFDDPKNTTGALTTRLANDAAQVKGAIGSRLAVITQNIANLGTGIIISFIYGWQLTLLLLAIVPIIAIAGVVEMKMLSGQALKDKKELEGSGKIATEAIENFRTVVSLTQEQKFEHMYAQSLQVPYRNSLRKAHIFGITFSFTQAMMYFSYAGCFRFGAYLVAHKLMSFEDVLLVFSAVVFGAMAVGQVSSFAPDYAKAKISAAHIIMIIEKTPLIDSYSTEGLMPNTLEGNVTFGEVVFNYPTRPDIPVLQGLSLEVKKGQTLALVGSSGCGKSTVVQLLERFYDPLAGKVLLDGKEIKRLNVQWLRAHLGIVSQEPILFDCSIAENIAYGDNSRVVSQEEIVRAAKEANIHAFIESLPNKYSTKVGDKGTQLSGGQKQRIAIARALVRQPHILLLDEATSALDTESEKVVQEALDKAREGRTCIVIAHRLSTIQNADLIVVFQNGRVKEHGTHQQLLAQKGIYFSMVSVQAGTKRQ
Chain of CYP3A4 (P08684 whole entry): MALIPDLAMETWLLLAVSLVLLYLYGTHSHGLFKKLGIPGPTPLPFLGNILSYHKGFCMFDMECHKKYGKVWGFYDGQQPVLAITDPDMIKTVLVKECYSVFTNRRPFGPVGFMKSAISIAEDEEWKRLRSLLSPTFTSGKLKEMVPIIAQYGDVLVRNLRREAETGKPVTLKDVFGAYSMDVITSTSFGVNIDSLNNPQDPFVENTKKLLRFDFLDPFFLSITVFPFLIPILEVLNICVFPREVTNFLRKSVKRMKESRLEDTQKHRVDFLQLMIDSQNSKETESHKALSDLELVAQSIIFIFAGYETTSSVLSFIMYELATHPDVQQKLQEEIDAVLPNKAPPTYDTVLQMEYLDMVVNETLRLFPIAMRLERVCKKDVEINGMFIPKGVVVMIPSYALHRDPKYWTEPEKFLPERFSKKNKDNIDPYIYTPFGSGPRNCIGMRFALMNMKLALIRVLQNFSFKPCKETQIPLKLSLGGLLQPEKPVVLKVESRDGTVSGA
Chain of CYP2D6 (P10635 whole entry): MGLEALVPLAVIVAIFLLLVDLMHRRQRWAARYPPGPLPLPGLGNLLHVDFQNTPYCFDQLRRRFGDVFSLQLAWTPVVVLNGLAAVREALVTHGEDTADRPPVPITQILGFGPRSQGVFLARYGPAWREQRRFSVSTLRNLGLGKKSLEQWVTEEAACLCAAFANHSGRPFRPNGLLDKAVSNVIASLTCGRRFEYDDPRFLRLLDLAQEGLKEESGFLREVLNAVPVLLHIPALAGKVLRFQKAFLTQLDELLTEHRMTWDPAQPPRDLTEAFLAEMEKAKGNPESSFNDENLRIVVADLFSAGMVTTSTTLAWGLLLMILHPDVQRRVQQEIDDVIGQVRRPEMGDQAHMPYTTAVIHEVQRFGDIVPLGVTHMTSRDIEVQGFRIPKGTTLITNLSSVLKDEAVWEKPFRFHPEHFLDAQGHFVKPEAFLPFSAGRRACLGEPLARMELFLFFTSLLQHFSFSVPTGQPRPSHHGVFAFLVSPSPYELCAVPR

CC[C@H](C)[C@@H]([C@@H](CC(=O)N1CCC[C@H]1[C@H](OC)[C@@H](C)C(=O)N[C@H](C)[C@@H](O)c1ccccc1)OC)N(C)C(=O)[C@@H](NC(=O)[C@@H](NC)C(C)C)C(C)C [MMAE] (H-[NMeV]V[Dil][Dolaproine]-X1)
metabolism by CYP2D6 [1]: to a lesser extent, by CYP2D6 | metabolism by CYP3A4 [2]: mainly metabolized by CYP3A4 | P-gp inhibitor status [3]: not a P-gp inhibitor | P-gp substrate status [3]: P-glycoprotein (P-gp) substrate
